Measured values taken from patent US11814367B2, “Inhibitors of glycogen synthase 1 (GYS1) and methods of use thereof” (Maze Therapeutics, Inc., priority 2021, dated 2023).
pIC50: −log10 of the molar value.

Assays:
[1] = biological target: hGYS1 enzyme (recombinant hGYS1/GN1 protein) (Homo sapiens (Human), UniProt P13807); assay: GYS1 coupled enzyme assay (PK/LDH); type: biochemical; settings: hGYS1/GN1 50 nM, UDP-Glucose 0.8 mM, G6P 1 mM; geometric mean of at least 2 runs
[2] = biological target: hGYS2 enzyme (recombinant hGYS2/GN1 protein) (Homo sapiens (Human), UniProt P54840); assay: GYS2 coupled enzyme assay (PK/LDH); type: biochemical; settings: geometric mean of at least 2 assay runs on separate days, read-out: Avg_IC50
hGYS2 enzyme (recombinant hGYS2/GN1 protein), sequence (P54840 whole entry): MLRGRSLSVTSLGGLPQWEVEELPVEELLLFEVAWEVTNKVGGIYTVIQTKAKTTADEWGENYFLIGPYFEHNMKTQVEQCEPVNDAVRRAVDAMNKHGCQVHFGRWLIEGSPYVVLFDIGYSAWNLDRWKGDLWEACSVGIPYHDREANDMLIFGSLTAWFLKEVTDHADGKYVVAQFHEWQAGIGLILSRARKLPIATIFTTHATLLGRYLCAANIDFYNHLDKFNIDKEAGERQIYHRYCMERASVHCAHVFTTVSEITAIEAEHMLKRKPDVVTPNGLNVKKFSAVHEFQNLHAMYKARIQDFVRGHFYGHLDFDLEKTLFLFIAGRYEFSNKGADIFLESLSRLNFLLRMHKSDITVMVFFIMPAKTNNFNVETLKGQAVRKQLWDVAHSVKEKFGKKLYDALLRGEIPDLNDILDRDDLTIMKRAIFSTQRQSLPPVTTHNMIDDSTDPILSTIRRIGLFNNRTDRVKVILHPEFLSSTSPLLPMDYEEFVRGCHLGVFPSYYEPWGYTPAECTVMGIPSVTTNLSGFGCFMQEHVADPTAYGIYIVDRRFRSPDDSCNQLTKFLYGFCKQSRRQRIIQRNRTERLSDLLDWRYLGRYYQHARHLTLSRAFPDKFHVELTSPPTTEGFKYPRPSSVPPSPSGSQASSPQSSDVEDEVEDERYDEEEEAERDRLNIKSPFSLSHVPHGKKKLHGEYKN
hGYS2 enzyme (recombinant hGYS2/GN1 protein), sequence (P46976 whole entry partner): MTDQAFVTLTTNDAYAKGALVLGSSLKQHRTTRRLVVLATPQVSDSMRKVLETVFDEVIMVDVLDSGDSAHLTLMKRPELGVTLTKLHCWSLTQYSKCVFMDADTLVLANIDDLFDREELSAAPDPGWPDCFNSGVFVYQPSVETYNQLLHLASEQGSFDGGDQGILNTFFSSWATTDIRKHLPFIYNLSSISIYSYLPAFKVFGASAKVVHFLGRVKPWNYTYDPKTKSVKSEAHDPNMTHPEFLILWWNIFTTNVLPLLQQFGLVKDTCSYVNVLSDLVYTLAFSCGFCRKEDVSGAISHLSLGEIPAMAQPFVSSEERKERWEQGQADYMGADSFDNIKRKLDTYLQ
Summary of the method: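 hGYS2/GN1 200 nM; UDP-Glc 2 mM; glycogen 0.2%; G6P 2 mM; PEP 2 mM, NADH 0.6 mM, PK/LDH 20 U/mL. 50 mM Tris pH 7.5, MgCl2, KCl, BSA, TCEP, 2.5% DMSO. Kinetic A340, 10 min. IC50 = geomean of ≥2 runs.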

hGYS1 enzyme (recombinant hGYS1/GN1 protein), sequence (P13807 whole entry): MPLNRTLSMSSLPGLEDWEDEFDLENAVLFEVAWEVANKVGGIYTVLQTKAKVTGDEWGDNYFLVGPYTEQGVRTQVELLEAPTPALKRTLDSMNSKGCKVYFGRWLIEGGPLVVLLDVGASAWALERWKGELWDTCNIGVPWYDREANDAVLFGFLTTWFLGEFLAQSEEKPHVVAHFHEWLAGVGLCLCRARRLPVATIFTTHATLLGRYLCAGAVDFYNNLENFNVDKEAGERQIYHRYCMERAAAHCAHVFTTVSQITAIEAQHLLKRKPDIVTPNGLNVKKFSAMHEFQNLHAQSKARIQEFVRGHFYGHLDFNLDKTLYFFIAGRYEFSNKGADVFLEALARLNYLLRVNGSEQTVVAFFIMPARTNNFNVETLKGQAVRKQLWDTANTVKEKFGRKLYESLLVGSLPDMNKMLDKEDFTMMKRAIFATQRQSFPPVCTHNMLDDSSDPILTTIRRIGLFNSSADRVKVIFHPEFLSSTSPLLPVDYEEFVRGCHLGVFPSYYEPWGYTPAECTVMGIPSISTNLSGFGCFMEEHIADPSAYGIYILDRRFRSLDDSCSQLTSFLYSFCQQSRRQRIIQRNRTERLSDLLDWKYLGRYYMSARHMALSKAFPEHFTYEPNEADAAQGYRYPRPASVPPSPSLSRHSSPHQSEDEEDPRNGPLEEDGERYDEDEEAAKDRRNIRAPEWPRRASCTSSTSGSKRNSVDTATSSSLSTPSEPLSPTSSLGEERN
hGYS1 enzyme (recombinant hGYS1/GN1 protein), sequence (P46976 whole entry partner): as the sequence (P46976 whole entry partner) above

Structure (SMILES) | pIC50 [1] | pIC50 [2]
Cc1n[nH]c(C)c1CC(=O)N1C[C@H](F)C[C@H]1C(=O)N[C@@H](c1ccccc1)c1ccc(C(C)C)cc1 [Compound 84, (2S,4R)-1-[2-(3,5-dimethyl-1H-pyrazol-4-yl)acetyl]-4-fluoro-N-[(S)-phenyl[4-(propan-2-yl)phenyl]methyl]pyrrolidine-2-carboxamide] | 8.00 | < 4.00
Cc1nnnn1CC(=O)N1C[C@H](F)C[C@H]1C(=O)N[C@@H](c1ccccc1)c1ccc(C2CC2)c(F)c1 [Compound 432, (2S,4R)-N-[(S)-(4-cyclopropyl-3-fluorophenyl)(phenyl)methyl]-4-fluoro-1-[2-(5-methyl-1H-1,2,3,4-tetrazol-1-yl)acetyl]pyrrolidine-2-carboxamide] | 6.73 | < 4.00
CC(C)c1ccc([C@@H](NC(=O)[C@@H]2C[C@@H](F)CN2C(=O)Cc2cnn[nH]2)c2cccnc2N)cc1F [Compound 613, (2S,4R)-1-(2-(1H-1,2,3-triazol-5-yl)acetyl)-N—((R)-(2-aminopyridin-3-yl)(3-fluoro-4-isopropylphenyl)methyl)-4-fluoropyrrolidine-2-carboxamide] | 6.89 | < 4.00
Cc1ccc(CCC(=O)N2C[C@H](F)C[C@H]2C(=O)N[C@@H](c2ccccc2)c2ccc(C(C)C)cc2)nc1 [Compound 101, (2S,4R)-4-fluoro-1-[3-(5-methylpyridin-2-yl)propanoyl]-N-[(S)-phenyl[4-(propan-2-yl)phenyl]methyl]pyrrolidine-2-carboxamide] | 7.27 | < 4.00
CC(C)c1ccc([C@@H](NC(=O)[C@@H]2C[C@@H](F)CN2C(=O)Cn2cncn2)c2ccccc2)cc1 [Compound 16, (2S,4R)-4-fluoro-N-[(S)-phenyl[4-(propan-2-yl)phenyl]methyl]-1-[2-(1H-1,2,4-triazol-1-yl)acetyl]pyrrolidine-2-carboxamide] | 7.48 | < 4.00
CC(C)c1ccc([C@@H](NC(=O)[C@@H]2C[C@@H](F)CN2C(=O)Cc2cnccn2)c2ccccc2)cc1F [Compound 344] | 7.89 | < 4.00
CC(C)c1ccc([C@@H](NC(=O)[C@@H]2C[C@@H](F)CN2C(=O)Cc2nnc(CN)o2)c2ccccc2)cc1 [Compound 238, (2S,4R)-1-{2-[5-(aminomethyl)-1,3,4-oxadiazol-2-yl]acetyl}-4-fluoro-N-[(S)-phenyl[4-(propan-2-yl)phenyl]methyl]pyrrolidine-2-carboxamide] | 7.34 | < 4.00
CC(C)c1ccc([C@@H](NC(=O)[C@@H]2C[C@@H](F)CN2C(=O)CCn2ccnn2)c2ccccc2)cc1 [Compound 11, (2S,4R)-4-fluoro-N-[(S)-phenyl[4-(propan-2-yl)phenyl]methyl]-1-[3-(1H-1,2,3-triazol-1-yl)propanoyl]pyrrolidine-2-carboxamide] | 7.04 | < 4.00
Cc1nc(CC(=O)N2C[C@H](F)C[C@H]2C(=O)N[C@@H](c2ccccc2)c2ccc(C(C)C)cc2)cs1 [Compound 52, (2S,4R)-4-fluoro-1-[2-(2-methyl-1,3-thiazol-4-yl)acetyl]-N-[(S)-phenyl[4-(propan-2-yl)phenyl]methyl]pyrrolidine-2-carboxamide] | 7.43 | < 4.00
CC(=O)N(C)CC(=O)N1C[C@H](F)C[C@H]1C(=O)N[C@@H](c1ccccc1)c1ccc(C(C)C)cc1 [Compound 142, (2S,4R)-4-fluoro-1-[2-(N-methylacetamido)acetyl]-N-[(S)-phenyl[4-(propan-2-yl)phenyl]methyl]pyrrolidine-2-carboxamide] | 7.11 | < 4.00
CC(C)c1ccc([C@@H](NC(=O)[C@@H]2CCCN2C(=O)CNC(=O)OC(C)(C)C)c2ccccc2)cc1 [Compound 210, tert-butyl N-{2-oxo-2-[(2S)-2-{[(S)-phenyl[4-(propan-2-yl)phenyl]methyl]carbamoyl}pyrrolidin-1-yl]ethyl}carbamate] | 6.97 | < 4.00
CC(C)c1ccc([C@@H](NC(=O)[C@@H]2C[C@@H]3C[C@@H]3N2C(=O)Cc2cnn[nH]2)c2ccccc2)cc1F [Compound 324, (1S,3S,5S)-N-[(S)-[3-fluoro-4-(propan-2-yl)phenyl](phenyl)methyl]-2-[2-(1H-1,2,3-triazol-5-yl)acetyl]-2-azabicyclo[3.1.0]hexane-3-carboxamide] | 6.85 | < 4.00
CC(=O)N[C@@H](CC(N)=O)C(=O)N1C[C@H](F)C[C@H]1C(=O)N[C@@H](c1ccccc1)c1ccc(C(C)C)c(F)c1 [Compound 765, (2S,4R)-1-[(2S)-3-carbamoyl-2-acetamidopropanoyl]-4-fluoro-N-[(S)-[3-fluoro-4-(propan-2-yl)phenyl](phenyl)methyl] pyrrolidine-2-carboxamide] | 7.33 | < 4.00
CC(C)c1ccc([C@@H](NC(=O)[C@@H]2C[C@@H](F)CN2C(=O)[C@@H]2CCC(=O)N2C)c2ccccc2)cc1 [Compound 57, (2S,4R)-4-fluoro-1-[(2S)-1-methyl-5-oxopyrrolidine-2-carbonyl]-N-[(S)-phenyl[4-(propan-2-yl)phenyl]methyl]pyrrolidine-2-carboxamide] | 6.64 | < 4.00
CC(C)c1ccc([C@@H](NC(=O)[C@@H]2C[C@@H](F)CN2C(=O)Cc2cc(F)ccc2Cl)c2ccccc2)cc1 [Compound 63, (2S,4R)-1-[2-(2-chloro-5-fluorophenyl]acetyl]-4-fluoro-N-[(S)-phenyl[4-(propan-2-yl)phenyl]methyl]pyrrolidine-2-carboxamide] | 7.82 | < 4.00
CC(=O)Nc1ccc(CC(=O)N2C[C@H](F)C[C@H]2C(=O)N[C@@H](c2ccccc2)c2ccc(C(C)C)cc2)cc1 [Compound 107, (2S,4R)-1-[2-(4-acetamidophenyl)acetyl]-4-fluoro-N-[(S)-phenyl[4-(propan-2-yl)phenyl]methyl]pyrrolidine-2-carboxamide] | 7.72 | < 4.00
CC(=O)N1CC[C@@H](C(=O)N2C[C@H](F)C[C@H]2C(=O)N[C@@H](c2ccccc2)c2ccc(C(C)C)cc2)[C@@H]1c1cccnc1 [Compound 140, (2S,4R)-1-[(2R,3R)-1-acetyl-2-(pyridin-3-yl)pyrrolidine-3-carbonyl]-4-fluoro-N-[(S)-phenyl[4-(propan-2-yl)phenyl]methyl]pyrrolidine-2-carboxamide] | 7.17 | < 4.00
CC(C)c1ccc([C@@H](NC(=O)[C@@H]2C[C@@H](F)CN2C(=O)Cn2ccccc2=O)c2ccccc2)cc1 [Compound 51, (2S,4R)-4-fluoro-1-[2-(2-oxo-1,2-dihydropyridin-1-yl)acetyl]-N-[(S)-phenyl[4-(propan-2-yl)phenyl]methyl]pyrrolidine-2-carboxamide] | 7.72 | < 4.00
COc1ccc(F)cc1CC(=O)N1C[C@H](F)C[C@H]1C(=O)N[C@@H](c1ccccc1)c1ccc(C(C)C)cc1 [Compound 90, (2S,4R)-4-fluoro-1-[2-(5-fluoro-2-methoxyphenyl)acetyl]-N-[(S)-phenyl[4-(propan-2-yl)phenyl]methyl]pyrrolidine-2-carboxamide] | 7.49 | < 4.00
Cc1nc(CC(=O)N2C[C@H](F)C[C@H]2C(=O)N[C@@H](c2ccccc2)c2ccc(C(C)C)cc2)c(C)s1 [Compound 69, (2S,4R)-1-[2-(2,5-dimethyl-1,3-thiazol-4-yl)acetyl]-4-fluoro-N-[(S)-phenyl[4-(propan-2-yl)phenyl]methyl]pyrrolidine-2-carboxamide] | 7.44 | < 4.00
